Experiments:
[1] = Stability in rat liver microsome after 30 mins; assay type: ADME; conditions: liver microsomes, read-out: Stability
[2] = Oral bioavailability in Beagle dog at 20 umol/kg, po; assay type: ADME, organism-based, Canis lupus familiaris; conditions: in vivo
[3] = Clearance in Beagle dog at 2 umol/kg, iv; assay type: ADME, organism-based, Canis lupus familiaris; conditions: in vivo
Cavia porcellus = species: Cavia porcellus; test: Antagonizing effect on penta gastrin-stimulated guinea pig gastric smooth muscle contraction by Schild analysis; assay type: functional, Muscle tissue
[4] = Half life in Beagle dog at 2 umol/kg, iv; assay type: ADME, organism-based, Canis lupus familiaris; conditions: in vivo
Rattus norvegicus [5] = species: Rattus norvegicus; test: Plasma concentration in rat; assay type: ADME, organism-based; conditions: in vivo
[6] = Clearance in Sprague-Dawley rat at 2 umol/kg, iv; assay type: ADME, organism-based; conditions: in vivo
[7] = Oral bioavailability in Sprague-Dawley rat at 2 umol/kg, po; assay type: ADME, organism-based; conditions: in vivo
Rattus norvegicus [8] = test: Inhibition of pentagastrin-stimulated gastric acid secretion in iv dosed anesthetized rat measured as increase in pH; assay type: functional, Stomach
[9] = molecular target: T1, Cholecystokinin receptor type A (Cavia porcellus) (UniProt Q63931); test: Antagonizing effect on CCK-8S-stimulated guinea pig gall bladder smooth muscle contraction by Schild analysis; assay type: functional, tissue-based; conditions: Muscle tissue
T1 sequence (whole entry): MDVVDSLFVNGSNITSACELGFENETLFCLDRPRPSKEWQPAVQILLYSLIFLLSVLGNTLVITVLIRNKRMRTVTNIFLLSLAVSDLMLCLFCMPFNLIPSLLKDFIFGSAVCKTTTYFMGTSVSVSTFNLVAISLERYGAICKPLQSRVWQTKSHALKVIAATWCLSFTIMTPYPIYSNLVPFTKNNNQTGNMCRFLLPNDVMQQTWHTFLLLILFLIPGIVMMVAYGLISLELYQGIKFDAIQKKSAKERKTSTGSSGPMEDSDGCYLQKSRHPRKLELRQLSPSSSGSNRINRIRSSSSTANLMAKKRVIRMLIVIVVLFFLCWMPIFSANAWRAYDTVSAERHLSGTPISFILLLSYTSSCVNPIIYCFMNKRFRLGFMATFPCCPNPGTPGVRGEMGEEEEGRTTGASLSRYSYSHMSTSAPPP

[10] = Half life in Sprague-Dawley rat at 2 umol/kg, iv; assay type: ADME, organism-based; conditions: in vivo
[11] = molecular target: T2, Cholecystokinin receptor type A (Homo sapiens, UniProt P32238)
T2 sequence (P32238 whole entry): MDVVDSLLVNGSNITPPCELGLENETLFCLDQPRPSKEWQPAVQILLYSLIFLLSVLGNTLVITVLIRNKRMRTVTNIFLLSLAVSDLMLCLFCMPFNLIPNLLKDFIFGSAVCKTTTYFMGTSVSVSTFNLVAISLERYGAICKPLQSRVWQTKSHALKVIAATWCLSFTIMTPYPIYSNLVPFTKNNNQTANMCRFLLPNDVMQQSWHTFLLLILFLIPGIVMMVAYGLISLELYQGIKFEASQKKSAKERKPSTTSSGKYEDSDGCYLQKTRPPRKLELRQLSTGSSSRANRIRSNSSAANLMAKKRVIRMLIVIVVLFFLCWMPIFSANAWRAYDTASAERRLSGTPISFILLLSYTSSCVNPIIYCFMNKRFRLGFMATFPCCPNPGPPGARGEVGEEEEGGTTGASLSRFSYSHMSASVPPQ
Description: Displacement of [125I]CCK-8S from human CCK1R

[12] = Stability in human liver microsome after 30 mins; assay type: ADME; conditions: liver microsomes, read-out: Stability
[13] = molecular target: T3, Gastrin/cholecystokinin type B receptor (Homo sapiens, UniProt P32239)
T3 sequence (P32239 whole entry): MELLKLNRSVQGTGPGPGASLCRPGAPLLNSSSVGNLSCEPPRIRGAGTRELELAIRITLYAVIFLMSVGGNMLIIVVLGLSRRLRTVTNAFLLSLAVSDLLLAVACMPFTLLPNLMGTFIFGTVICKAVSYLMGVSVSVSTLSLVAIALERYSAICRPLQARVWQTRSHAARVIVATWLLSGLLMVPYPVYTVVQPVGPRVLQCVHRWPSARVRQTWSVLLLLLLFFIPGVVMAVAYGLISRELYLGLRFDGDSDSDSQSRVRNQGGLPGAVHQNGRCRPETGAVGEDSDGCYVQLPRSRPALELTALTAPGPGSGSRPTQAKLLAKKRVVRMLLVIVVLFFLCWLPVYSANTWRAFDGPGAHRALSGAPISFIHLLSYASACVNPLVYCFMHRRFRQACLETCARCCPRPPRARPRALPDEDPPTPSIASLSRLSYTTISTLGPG
Description: Displacement of [125I]CCK-8S from human CCK2R

[14] = Stability in dog liver S9 fraction after 15 mins; assay type: ADME, Canis lupus familiaris; conditions: read-out: Stability
[15] = Stability in human liver S9 fraction after 15 mins; assay type: ADME; conditions: read-out: Stability
[16] = Stability in rat liver S9 fraction after 30 mins; assay type: ADME; conditions: read-out: Stability
[17] = Stability in human liver S9 fraction after 30 mins; assay type: ADME; conditions: read-out: Stability
[18] = Stability in human liver microsome after 15 mins; assay type: ADME; conditions: liver microsomes, read-out: Stability
[19] = Partition coefficient, log D at pH 7.4; assay type: physicochemical; conditions: octanol/water
[20] = Binding to alpha-glycoprotein; assay type: ADME; conditions: human, read-out: PPB (converted)
Caco-2 [21] = test: Apparent permeability from basolateral to apical side of Caco-2 cells; assay type: ADME, cell-based; conditions: human
[22] = Stability in dog liver S9 fraction after 30 mins; assay type: ADME, Canis lupus familiaris; conditions: read-out: Stability
[23] = Dissociation constant, pKa of the compound; assay type: physicochemical
Caco-2 [24] = test: Apparent permeability from apical to basolateral side of Caco-2 cells; assay type: ADME, cell-based; conditions: human
[25] = Stability in rat liver S9 fraction after 15 mins; assay type: ADME; conditions: read-out: Stability
Rattus norvegicus [26] = test: Inhibition of pentagastrin-stimulated gastric acid secretion in po dosed conscious gastric fistula Sprague-Dawley rat; assay type: functional; conditions: Stomach

| SMILES | remaining at 0.5 h [1] | clearance [6] | half-life [10] | Ki ([11]; read-out: Ki) | remaining at 0.5 h [12] | Ki ([13]; read-out: Log Ki (converted)) | also measured |
| --- | --- | --- | --- | --- | --- | --- | --- |
| O=C(c1ccc(Br)cc1NS(=O)(=O)c1cccc2nsnc12)N1CCCCC1 | 8% | 11.7 mL/min/kg | 15.6 min | > 10000 nM | 15% |  | bioavailability [2]: 33%; clearance [3]: 11.7 mL/min/kg; pKb (Cavia porcellus): 8.8; half-life [4]: 25.2 min; concentration (Rattus norvegicus [5]): 1300 nM; bioavailability [7]: 68%; ED50 (Rattus norvegicus [8]): 0.6 mg/kg/h; Kb [9]: > 10000 nM; pKb [9]: < 5 |
| O=C(c1cc(Cl)c(Cl)cc1NS(=O)(=O)c1cccc2nsnc12)N1CCCCC1 | 8% |  |  | > 10000 nM | 8% |  |  |
| O=C(c1ccc(Cl)cc1NS(=O)(=O)c1cccc2nsnc12)N1CCCCCC1 | 2% |  |  | > 10000 nM | 11% | 63.1 nM |  |
| O=C(c1ccc(Cl)cc1NS(=O)(=O)c1cccc2nsnc12)N1CCCCC1 |  | 20.8 mL/min/kg | 9.6 min | > 10000 nM | 3.9% | 39.8 nM | remaining at 0.25 h [14]: 78%; remaining at 0.25 h [15]: 69%; remaining at 0.5 h [16]: 62%; remaining at 0.5 h [17]: 51%; pKb (Cavia porcellus): 8.49; remaining at 0.25 h [18]: 19%; logD [19]: 2.1; fraction unbound [20]: 0.23; Papp (Caco-2 [21]): 1.8 ×10⁻⁶ cm/s; remaining at 0.5 h [22]: 59%; bioavailability [7]: 42%; pKa [23]: 5.47; Papp (Caco-2 [24]): 22.7 ×10⁻⁶ cm/s; remaining at 0.25 h [25]: 78%; Kb [9]: > 10000 nM; pKb [9]: < 5 |
| O=C(c1ccc(Cl)cc1NS(=O)(=O)c1cccc2nonc12)N1CCCCC1 |  |  |  | > 10000 nM |  | 1580 nM | pKa [23]: 6.18 |
| CN(Cc1ccccc1)C(=O)c1ccc(Cl)cc1NS(=O)(=O)c1cccc2nsnc12 |  |  |  | > 10000 nM | 2.2% | 31.6 nM |  |
| O=C(c1ccc(I)cc1NS(=O)(=O)c1cccc2nccnc12)N1CCOCC1 | 46% | 6 mL/min/kg | 37.2 min | > 10000 nM | 60% |  | bioavailability [2]: 51%; clearance [3]: 1.62 mL/min/kg; half-life [4]: 90 min; bioavailability [7]: 55%; ED50 (Rattus norvegicus [26]): 0.57 mg/kg |
| O=C(c1cc(Cl)ccc1NS(=O)(=O)c1cccc2nsnc12)N1CCCCC1 | 9% | 7 mL/min/kg | 21 min |  | 16% | 398 nM | Ki ([11]; read-out: Log Ki (converted)): > 10000 nM |
| O=C(c1ccc(Br)cc1NS(=O)(=O)c1cccc2nccnc12)N1CCCCC1 | 8% | 13.8 mL/min/kg | 20.4 min | > 10000 nM | 21% | 63.1 nM | bioavailability [7]: 50% |
| O=C(c1ccc(Cl)cc1NS(=O)(=O)c1cccc2nsnc12)N1CCc2ccccc2C1 |  |  |  | > 10000 nM |  | 1000 nM |  |
| CC1CCCCN1C(=O)c1ccc(Cl)cc1NS(=O)(=O)c1cccc2nsnc12 (stereo unspecified) | 3% |  |  | > 10000 nM | 14% |  |  |
| O=C(c1ccc(-c2ccco2)cc1NS(=O)(=O)c1cccc2nsnc12)N1CCCCC1 |  |  |  | > 10000 nM |  | 126 nM |  |
| O=C(c1cc2ccccc2cc1NS(=O)(=O)c1cccc2nsnc12)N1CCCCC1 |  |  |  | > 10000 nM |  | 126 nM |  |
| CN(C)c1ccc(C(=O)N2CCCCC2)c(NS(=O)(=O)c2cccc3nsnc23)c1 |  |  |  | > 10000 nM |  | 316 nM |  |
| O=C(c1ccccc1NS(=O)(=O)c1cc2ccccc2[nH]1)N1CCCCC1 |  |  |  |  |  |  | Ki ([13]; read-out: Ki): > 10000 nM; Ki ([11]; read-out: Log Ki (converted)): 7940 nM |
| CN1CCN(C(=O)c2ccc(Cl)cc2NS(=O)(=O)c2cccc3nsnc23)CC1 |  |  |  | > 10000 nM |  | 2510 nM |  |
